Assay type in all cases: in vivo
The nature of test [1]: Bitterness reduction of a bitter substance solution (expert sensory panel), caffeine. The settings on record: 500 ppm Coffein; for Bitter-Eindruck (1-10) mit Testsubstanz: scale 1 [nicht bitter] to 10 [extrem bitter]. The text has this:
(§1) Um die Reduzierung (d.h. die Maskierung oder Verminderung) des Bitter-Eindrucks in einer Probe zu quantifizieren, wurde die Bitterkeit einer Lösung enthaltend 500 ppm Coffein oder 300 ppm Theobromin oder 100 ppm Naringin von einer Expertengruppe jeweils mit einer Probe verglichen, die 500 ppm Coffein oder 300 ppm Theobromin oder 100 ppm Naringin und zusätzlich die jeweils angegebene Menge einer (hinsichtlich der Fähigkeit zur Bitter-Reduzierung) zu beurteilenden Substanz enthielt (Einstufung: 1 [nicht bitter] bis 10 [extrem bitter]). Für die Auswertung, d.h. die Berechnung der Reduktion (in %) des Bittereindrucks wurden jeweils die Durchschnittswerte der Einschätzungen der Expertengruppe verwendet. Die Ergebnisse sind in Tabelle 1 zusammengefasst: Tabelle 1 Bitter-reduzierung einer Bitterstofflösung

Test [2] in a line: Bitterness reduction of a bitter substance solution (expert sensory panel), theobromine. The settings on record: 25 ppm test substance, 300 ppm Theobromin; for Bitter-Eindruck (1-10) mit Testsubstanz: scale 1 [nicht bitter] to 10 [extrem bitter].
Excerpt: as §1

A short description of test [3]: Bitterness reduction of a bitter substance solution (expert sensory panel), naringin. The settings on record: 100 ppm Naringin; for Bitter-Eindruck (1-10) mit Testsubstanz: scale 1 [nicht bitter] to 10 [extrem bitter].
Excerpt: as §1

On to `O=C1C[C@@H](c2cccnc2)c2c(O)cc(O)cc2O1` (racemic) [(3) + (4), (4S)-5,7-dihydroxy-4-(3-pyridyl)chroman-2-on (3) und (4R)-5,7-dihydroxy-4-(3-pyridyl)chroman-2-on (4)], for which the “% Reduktion des Bitter-Eindrucks (Signifikanz)” value in test [1] (50 ppm test substance, p < 0,35) is 13,7% (p < 0,35); in test [3] (50 ppm test substance, p < 0,02), 34,1 % (p < 0,02). Further, the “Bitter-Eindruck (1-10) mit Testsubstanz” value in test [1] (50 ppm test substance, without test substance 3,5 ± 1,4) is 3,1 ± 1,7; in test [2] (without test substance 4,2 ± 2,2), 3,4 ± 1,8; in test [3] (50 ppm test substance, without test substance 5,0 ± 2,0), 3,3 ± 1,8.
On to `O=C1C[C@@H](c2ccncc2)c2c(O)cc(O)cc2O1` (racemic) [(1) + (2), (4S)-5,7-dihydroxy-4-(4-pyridyl)chroman-2-on (1) und (4R)-5,7-dihydroxy-4-(4-pyridyl)chroman-2-on (2)], for which the “% Reduktion des Bitter-Eindrucks (Signifikanz)” value is on record as 37,0 % (p < 0,0007) in test [1] (10 ppm test substance, p < 0,0007); 19,4 % (p < 0,25) in test [2] (without test substance 3,6 ± 2,0, p < 0,25); 52,1 % (p < 0,0001) in test [3] (25 ppm test substance, p < 0,0001). Further, the “Bitter-Eindruck (1-10) mit Testsubstanz” value in test [1] (10 ppm test substance, without test substance 3,8 ± 1,3) is recorded as 2,4 + 1,0; in test [2] (without test substance 3,6 ± 2,0) it was 2,9 ± 1,4; in test [3] (25 ppm test substance, without test substance 6,6 ± 2,0), 3,2 + 1,5.

Values taken from patent EP2725026A1, “Heterocyclic neoflavonoids with taste masking properties” (Symrise AG, priority 2012, dated 2014).
